Experiments:
Conditions in all cases: in vivo
[1] = test system: Rattus norvegicus; experiment: Biodistribution in albino Wistar Hannover rat adipose tissue at 5 mg/kg, iv after 24 hrs by autoradiography analysis; format: ADME, organism-based; design: dose 5 mg/kg, route intravenous
[2] = test system: Lung; experiment: Biodistribution in albino Wistar Hannover rat lung at 5 mg/kg, iv after 24 hrs by autoradiography analysis; format: ADME, organism-based; design: dose 5 mg/kg, route intravenous
[3] = test system: Rattus norvegicus; experiment: Biodistribution in albino Wistar Hannover rat testis at 5 mg/kg, iv after 24 hrs by autoradiography analysis; format: ADME, organism-based; design: dose 5 mg/kg, route intravenous
[4] = test system: Pituitary gland; experiment: Biodistribution in albino Wistar Hannover rat pituitary at 5 mg/kg, iv after 24 hrs by autoradiography analysis; format: ADME, organism-based; design: dose 5 mg/kg, route intravenous
[5] = test system: Rattus norvegicus; experiment: Biodistribution in albino Wistar Hannover rat myocardium at 5 mg/kg, iv after 24 hrs by autoradiography analysis; format: ADME, organism-based; design: dose 5 mg/kg, route intravenous
[6] = test system: Blood; experiment: Biodistribution in albino Wistar Hannover rat whole blood at 5 mg/kg, iv after 24 hrs by liquid scintillation counting; format: ADME, organism-based; design: dose 5 mg/kg, route intravenous
[7] = test system: Brain; experiment: Biodistribution in albino Wistar Hannover rat brain at 5 mg/kg, iv after 24 hrs by autoradiography analysis; format: ADME, organism-based; design: dose 5 mg/kg, route intravenous
[8] = test system: Harderian gland; experiment: Biodistribution in albino Wistar Hannover rat harderian gland at 5 mg/kg, iv after 24 hrs by autoradiography analysis; format: ADME, organism-based; design: dose 5 mg/kg, route intravenous
[9] = test system: Zone of skin; experiment: Biodistribution in albino Wistar Hannover rat skin at 5 mg/kg, iv after 24 hrs by autoradiography analysis; format: ADME, organism-based; design: dose 5 mg/kg, route intravenous
[10] = Half life in albino Wistar Hannover rat muscle caudal at 5 mg/kg, iv by autoradiography analysis; format: ADME, organism-based, Muscle tissue; design: dose 5 mg/kg, route intravenous
[11] = Half life in albino Wistar Hannover rat salivary gland at 5 mg/kg, iv by autoradiography analysis; format: ADME, organism-based; design: dose 5 mg/kg, route intravenous
[12] = Half life in albino Wistar Hannover rat adipose tissue at 5 mg/kg, iv by autoradiography analysis; format: ADME, organism-based; design: dose 5 mg/kg, route intravenous
[13] = test system: Lung; experiment: Drug uptake in albino Wistar Hannover rat lung at 5 mg/kg, iv by LESA-MS analysis; format: ADME, organism-based; design: dose 5 mg/kg, route intravenous
[14] = test system: Blood; experiment: Biodistribution in albino Wistar Hannover rat whole blood at 5 mg/kg, iv after 4 hrs by liquid scintillation counting; format: ADME, organism-based; design: dose 5 mg/kg, route intravenous
[15] = test system: Plasma; experiment: Biodistribution in albino Wistar Hannover rat plasma at 5 mg/kg, iv after 4 hrs by liquid scintillation counting; format: ADME, organism-based; design: dose 5 mg/kg, route intravenous
[16] = test system: Brain; experiment: Biodistribution in albino Wistar Hannover rat brain at 5 mg/kg, iv after 4 hrs by autoradiography analysis; format: ADME, organism-based; design: dose 5 mg/kg, route intravenous
[17] = test system: Zone of skin; experiment: Biodistribution in albino Wistar Hannover rat skin at 5 mg/kg, iv after 4 hrs by autoradiography analysis; format: ADME, organism-based; design: dose 5 mg/kg, route intravenous
[18] = test system: Rattus norvegicus; experiment: Biodistribution in albino Wistar Hannover rat muscle cranial at 5 mg/kg, iv after 24 hrs by autoradiography analysis; format: ADME, organism-based, Muscle tissue; design: dose 5 mg/kg, route intravenous
[19] = test system: Rattus norvegicus; experiment: Biodistribution in albino Wistar Hannover rat tongue at 5 mg/kg, iv after 24 hrs by autoradiography analysis; format: ADME, organism-based; design: dose 5 mg/kg, route intravenous
[20] = test system: Lung; experiment: Half life in albino Wistar Hannover rat lung at 5 mg/kg, iv by autoradiography analysis; format: ADME, organism-based; design: dose 5 mg/kg, route intravenous
[21] = Half life in albino Wistar Hannover rat testis at 5 mg/kg, iv by autoradiography analysis; format: ADME, organism-based; design: dose 5 mg/kg, route intravenous
[22] = test system: Thymus; experiment: Half life in albino Wistar Hannover rat thymus at 5 mg/kg, iv by autoradiography analysis; format: ADME, organism-based; design: dose 5 mg/kg, route intravenous
[23] = Drug uptake in albino Wistar Hannover rat epididymis at 5 mg/kg, iv by LESA-MS analysis; format: ADME, organism-based; design: dose 5 mg/kg, route intravenous
[24] = test system: Brain; experiment: Drug uptake in albino Wistar Hannover rat brain at 5 mg/kg, iv by LESA-MS analysis; format: ADME, organism-based; design: dose 5 mg/kg, route intravenous
[25] = Drug uptake in albino Wistar Hannover rat brown fat at 5 mg/kg, iv by LESA-MS analysis; format: ADME, organism-based, Brown adipose tissue; design: dose 5 mg/kg, route intravenous
[26] = test system: Kidney; experiment: Drug uptake in albino Wistar Hannover rat outer medulla of kidney at 5 mg/kg, iv by LESA-MS analysis; format: ADME, organism-based; design: dose 5 mg/kg, route intravenous
[27] = Drug uptake in albino Wistar Hannover rat white fat at 5 mg/kg, iv by LESA-MS analysis; format: ADME, organism-based, White adipose tissue; design: dose 5 mg/kg, route intravenous
[28] = Drug uptake in albino Wistar Hannover rat myocardium at 5 mg/kg, iv by LESA-MS analysis; format: ADME, organism-based; design: dose 5 mg/kg, route intravenous
[29] = test system: Liver; experiment: Drug uptake in albino Wistar Hannover rat liver at 5 mg/kg, iv by LESA-MS analysis; format: ADME, organism-based; design: dose 5 mg/kg, route intravenous
[30] = test system: Stomach; experiment: Drug uptake in albino Wistar Hannover rat stomach at 5 mg/kg, iv by LESA-MS analysis; format: ADME, organism-based; design: dose 5 mg/kg, route intravenous
[31] = Drug uptake in albino Wistar Hannover rat testis at 5 mg/kg, iv by LESA-MS analysis; format: ADME, organism-based; design: dose 5 mg/kg, route intravenous
[32] = test system: Rattus norvegicus; experiment: Biodistribution in albino Wistar Hannover rat muscle caudal at 5 mg/kg, iv after 5 mins by autoradiography analysis; format: ADME, organism-based, Muscle tissue; design: dose 5 mg/kg, route intravenous
[33] = test system: Rattus norvegicus; experiment: Biodistribution in albino Wistar Hannover rat salivary gland at 5 mg/kg, iv after 5 mins by autoradiography analysis; format: ADME, organism-based; design: dose 5 mg/kg, route intravenous
[34] = test system: Pancreas; experiment: Biodistribution in albino Wistar Hannover rat pancreas at 5 mg/kg, iv after 5 mins by autoradiography analysis; format: ADME, organism-based; design: dose 5 mg/kg, route intravenous
[35] = test system: Rattus norvegicus; experiment: Biodistribution in albino Wistar Hannover rat adipose tissue at 5 mg/kg, iv after 5 mins by autoradiography analysis; format: ADME, organism-based; design: dose 5 mg/kg, route intravenous
[36] = test system: Lung; experiment: Biodistribution in albino Wistar Hannover rat lung at 5 mg/kg, iv after 5 mins by autoradiography analysis; format: ADME, organism-based; design: dose 5 mg/kg, route intravenous
[37] = test system: Rattus norvegicus; experiment: Biodistribution in albino Wistar Hannover rat adrenal cortex at 5 mg/kg, iv after 5 mins by autoradiography analysis; format: ADME, organism-based; design: dose 5 mg/kg, route intravenous
[38] = test system: Rattus norvegicus; experiment: Biodistribution in albino Wistar Hannover rat myocardium at 5 mg/kg, iv after 5 mins by autoradiography analysis; format: ADME, organism-based; design: dose 5 mg/kg, route intravenous
[39] = test system: Rattus norvegicus; experiment: Biodistribution in albino Wistar Hannover rat bone marrow at 5 mg/kg, iv after 5 mins by autoradiography analysis; format: ADME, organism-based; design: dose 5 mg/kg, route intravenous
[40] = test system: Blood; experiment: Biodistribution in albino Wistar Hannover rat whole blood at 5 mg/kg, iv after 5 mins by liquid scintillation counting; format: ADME, organism-based; design: dose 5 mg/kg, route intravenous
[41] = test system: Plasma; experiment: Biodistribution in albino Wistar Hannover rat plasma at 5 mg/kg, iv after 5 mins by liquid scintillation counting; format: ADME, organism-based; design: dose 5 mg/kg, route intravenous
[42] = test system: Harderian gland; experiment: Biodistribution in albino Wistar Hannover rat harderian gland at 5 mg/kg, iv after 5 mins by autoradiography analysis; format: ADME, organism-based; design: dose 5 mg/kg, route intravenous
[43] = test system: Rattus norvegicus; experiment: Biodistribution in albino Wistar Hannover rat tongue at 5 mg/kg, iv after 4 hrs by autoradiography analysis; format: ADME, organism-based; design: dose 5 mg/kg, route intravenous
[44] = test system: Rattus norvegicus; experiment: Biodistribution in albino Wistar Hannover rat salivary gland at 5 mg/kg, iv after 4 hrs by autoradiography analysis; format: ADME, organism-based; design: dose 5 mg/kg, route intravenous
[45] = test system: Liver; experiment: Biodistribution in albino Wistar Hannover rat liver at 5 mg/kg, iv after 4 hrs by autoradiography analysis; format: ADME, organism-based; design: dose 5 mg/kg, route intravenous
[46] = test system: Rattus norvegicus; experiment: Biodistribution in albino Wistar Hannover rat renal cortex at 5 mg/kg, iv after 4 hrs by autoradiography analysis; format: ADME, organism-based; design: dose 5 mg/kg, route intravenous
[47] = test system: Rattus norvegicus; experiment: Biodistribution in albino Wistar Hannover rat testis at 5 mg/kg, iv after 4 hrs by autoradiography analysis; format: ADME, organism-based; design: dose 5 mg/kg, route intravenous
[48] = test system: Rattus norvegicus; experiment: Biodistribution in albino Wistar Hannover rat epididymis at 5 mg/kg, iv after 4 hrs by autoradiography analysis; format: ADME, organism-based; design: dose 5 mg/kg, route intravenous
[49] = test system: Rattus norvegicus; experiment: Biodistribution in albino Wistar Hannover rat adrenal cortex at 5 mg/kg, iv after 4 hrs by autoradiography analysis; format: ADME, organism-based; design: dose 5 mg/kg, route intravenous
[50] = test system: Pituitary gland; experiment: Biodistribution in albino Wistar Hannover rat pituitary at 5 mg/kg, iv after 4 hrs by autoradiography analysis; format: ADME, organism-based; design: dose 5 mg/kg, route intravenous
[51] = test system: Thymus; experiment: Biodistribution in albino Wistar Hannover rat thymus at 5 mg/kg, iv after 4 hrs by autoradiography analysis; format: ADME, organism-based; design: dose 5 mg/kg, route intravenous
[52] = test system: Liver; experiment: Drug uptake in albino Wistar Hannover rat liver at 5 mg/kg, iv

CN(CCc1cc(C(F)(F)F)cc(C(F)(F)F)c1)C(=O)[C@H](c1ccccc1)N1CCN(CC2CC2)CC1.Cl.O
Drug uptake [1]: 113 ngequiv/g
Drug uptake [2]: 1708 ngequiv/g
Drug uptake [3]: 633 ngequiv/g
Drug uptake [4]: 2350 ngequiv/g
Drug uptake [5]: 1207 ngequiv/g
Drug uptake [6]: 122 ngequiv/g
Drug uptake [7]: 50 ngequiv/g
Drug uptake [8]: 6246 ngequiv/g
Drug uptake [9]: 606 ngequiv/g
t1/2 [10]: 19.7 h
t1/2 [11]: 20.3 h
t1/2 [12]: 27.1 h
Drug uptake [13]: 38.9%
Drug uptake [14]: 361 ngequiv/g
Drug uptake [15]: 192 ngequiv/g
Drug uptake [16]: 122 ngequiv/g
Drug uptake [17]: 1997 ngequiv/g
Drug uptake [18]: 671 ngequiv/g
Drug uptake [19]: 891 ngequiv/g
t1/2 [20]: 20.5 h
t1/2 [21]: 95.6 h
t1/2 [22]: 22.7 h
Drug uptake [23]: 62.1%
Drug uptake [24]: 75.6%
Drug uptake [25]: 47.1%
Drug uptake [26]: 20.8%
Drug uptake [27]: 100%
Drug uptake [28]: 22.6%
Drug uptake [29]: 12.9%
Drug uptake [30]: 34.6%
Drug uptake [31]: 79.5%
Drug uptake [32]: 6936 ngequiv/g
Drug uptake [33]: 10729 ngequiv/g
Drug uptake [34]: 17869 ngequiv/g
Drug uptake [35]: 467 ngequiv/g
Drug uptake [36]: 24769 ngequiv/g
Drug uptake [37]: 21006 ngequiv/g
Drug uptake [38]: 13504 ngequiv/g
Drug uptake [39]: 4445 ngequiv/g
Drug uptake [40]: 830 ngequiv/g
Drug uptake [41]: 483 ngequiv/g
Drug uptake [42]: 4132 ngequiv/g
Drug uptake [43]: 3786 ngequiv/g
Drug uptake [44]: 8238 ngequiv/g
Drug uptake [45]: 13851 ngequiv/g
Drug uptake [46]: 8020 ngequiv/g
Drug uptake [47]: 1510 ngequiv/g
Drug uptake [48]: 2290 ngequiv/g
Drug uptake [49]: 11078 ngequiv/g
Drug uptake [50]: 7747 ngequiv/g
Drug uptake [51]: 3372 ngequiv/g
Drug uptake [52]: 12.9%
